Patent US9682957B2 (Theravance Respiratory Company, LLC, priority 2009, dated 2017)
Where a name gives a salt, the structure may show the parent alone.

system: MCh-induced bronchoconstriction; assay: Einthoven assay: bronchoprotection against methacholine (MCh)-induced bronchoconstriction; assay type: in vivo; conditions: rat, 100 μg by inhalation, 24 h after administration
Description: This assay measures the ability of a test compound to provide bronchoprotection against methacholine (MCh)-induced bronchoconstriction in a rat. Male Sprague-Dawley rats (Harlan, Indianapolis, Ind.), weighing between 200 g and 350 g, were used for all studies. Test compound or vehicle (sterile deionized water) were dosed by inhalation (IH) over a 10 min period in a pie shaped inhalation chamber (R+S Molds, San Carlos, Calif.) using 5 mL of dosing solution. […] Rats were dosed with 100 μg of test compound unless otherwise indicated. At predetermined time points, rats were anesthetized with an intraperitoneal (IP) injection of 120 mg/kg inactin (thiobutabarbital). A supplemental dose (40 mg/kg, IP) was administered if the animal responded to physical stimuli (e.g. toe pinch). The surgical site was shaved and a 1-2 cm midline incision of the ventral aspect of the neck was made. The jugular vein was isolated and cannulated with a saline-filled polyethylene catheter (PE-50) to allow IV infusion of MCh. Trachea was dissected free and cannulated with a 14G needle (#NE-014, Small Parts, Miami Lakes, Fla.). After placement of the tracheal cannula, each rat was ventilated using a respirator (Model 683, Harvard Apparatus, Inc., MA) set at a stroke volume of 1 mL/100 g body weight (but not exceeding 2.5 mL volume) and a rate of 90 strokes per minute. A T-connector was placed along the respirator expiratory tubing to allow for measurement of changes in ventilation pressure (VP) using a Biopac transducer that was connected to a Biopac […]) pre-amplifier. Body temperature was maintained at 37° C. using a heating pad. Changes in VP were recorded using the Acknowledge Data Collection Software (Santa Barbara, Calif.). Baseline values were collected for at least 2.5 min. Rats were then challenged with non-cumulative intravenous (IV) infusions of 40 and 80 μg/kg MCh. MCh was infused intravenously for 2.5 minutes from a syringe pump (sp210iw, World Precision Instruments, Inc., Sarasota, Fla.) at a rate of 2 mL/kg/min, with a 2 minute interval between the two doses of MCh. Changes in ventilation pressure (cm H2O) in treated animals are expressed as % inhibition of MCh response relative to control animals. Other bronchoconstrictors, such as histamine and acetylcholine, can be used in place of MCh in this assay. Additionally, guinea pigs can be used instead of rats. […] Inhibition greater than or equal to 30 percent at 24 h is indicative of a long duration of action.

Row | SMILES | Broncho. at 24 h
1 | CN(CCCC(=O)Nc1cccc(CCNC[C@H](O)c2ccc(O)c3[nH]c(=O)ccc23)c1)C(=O)CCN1CCC(OC(=O)Nc2ccccc2-c2ccccc2)CC1 [Compound I-7, Biphenyl-2-ylcarbamic Acid 1-(2-{[3-(3-{2-[(R)-2-Hydroxy-2-(8-hydroxy-2-oxo-1,2-dihydroquinolin-5-yl)ethylamino]ethyl}phenylcarbamoyl)-propyl]methylcarbamoyl}ethyl)piperidin-4-yl Ester Ditrifluoroacetic Acid Salt] | Yes (Bronchoprotective effect present at 24 h, e.g., ≧30 % inhibition of the MCh response at 24 h in the rat Einthoven assay (100 μg))
2 | C[C@@H](Cc1cccc(CC(=O)NCCCN(C)C(=O)CCN2CCC(OC(=O)Nc3ccccc3-c3ccccc3)CC2)c1)NC[C@H](O)c1ccc(O)c2[nH]c(=O)ccc12 [Compound I-13, Biphenyl-2-ylcarbamic Acid 1-[2-({3-[2-(3-{(S)-2-[(R)-2-Hydroxy-2-(8-hydroxy-2-oxo-1,2-dihydroquinolin-5-yl)ethylamino]propyl}phenyl)acetylamino]-propyl}methylcarbamoyl)ethyl]piperidin-4-yl Ester Ditrifluoroacetic Acid Salt] | Yes (Bronchoprotective effect present at 24 h, e.g., ≧30 % inhibition of the MCh response at 24 h in the rat Einthoven assay (100 μg))
3 | CN(CCCCC(=O)Nc1ccc(CNC[C@H](O)c2ccc(O)c3[nH]c(=O)ccc23)cc1)C(=O)CCN1CCC(OC(=O)Nc2ccccc2-c2ccccc2)CC1 [Compound I-14, Biphenyl-2-ylcarbamic Acid 1-(2-{[4-(4-{[(R)-2-hydroxy-2-(8-hydroxy-2-oxo-1,2-dihydroquinolin-5-yl)ethylamino]methyl}phenylcarbamoyl)-butyl]methylcarbamoyl}ethyl)piperidin-4-yl Ester Ditrifluoroacetic Acid Salt] | Yes (Bronchoprotective effect present at 24 h, e.g., ≧30 % inhibition of the MCh response at 24 h in the rat Einthoven assay (100 μg))
4 | Cc1cc(NC(=O)CCCCN(C)C(=O)CCN2CCC(OC(=O)Nc3ccccc3-c3ccccc3)CC2)c(C)cc1CNC[C@H](O)c1ccc(O)c2[nH]c(=O)ccc12 [Compound I-18, Biphenyl-2-ylcarbamic Acid 1-(2-{[4-(4-{[(R)-2-Hydroxy-2-(8-hydroxy-2-oxo-1,2-dihydroquinolin-5-yl)ethylamino]methyl}-2,5-dimethylphenylcarbamoyl)butyl]methylcarbamoyl}ethyl)piperidin-4-yl Ester Ditrifluoroacetic Acid Salt] | Yes (Bronchoprotective effect present at 24 h, e.g., ≧30 % inhibition of the MCh response at 24 h in the rat Einthoven assay (100 μg))
5 | CN(C(=O)CCN1CCC(OC(=O)Nc2ccccc2-c2ccccc2)CC1)c1cccc(C(=O)Nc2ccc(CCNC[C@H](O)c3ccc(O)c4[nH]c(=O)ccc34)cc2)c1 [Compound I-34, Ditrifluoroacetate] | Yes (Bronchoprotective effect present at 24 h, e.g., ≧30 % inhibition of the MCh response at 24 h in the rat Einthoven assay (100 μg))
6 | Cc1ccc(C(=O)Nc2ccc(CCNC[C@H](O)c3ccc(O)c4[nH]c(=O)ccc34)cc2)cc1N(C)C(=O)CCN1CCC(OC(=O)Nc2ccccc2-c2ccccc2)CC1 [Compound I-35] | Yes (Bronchoprotective effect present at 24 h, e.g., ≧30 % inhibition of the MCh response at 24 h in the rat Einthoven assay (100 μg))
7 | CC(Cc1cccc(CCNC(=O)Cc2ccc(N(C)C(=O)CCN3CCC(OC(=O)Nc4ccccc4-c4ccccc4)CC3)cc2)c1)NC[C@H](O)c1ccc(O)c2[nH]c(=O)ccc12 (some centres unmarked) [Compound I-85, ditrifluoroacetic acid salt] | Yes (Bronchoprotective effect present at 24 h, e.g., ≧30 % inhibition of the MCh response at 24 h in the rat Einthoven assay (100 μg))

same assay, conditions: rat, 100 μg by inhalation, 24 h after administration; ditrifluoroacetic acid salt

Row | SMILES | Broncho. at 24 h
8 | CC(Cc1ccc(CNC(=O)Cc2ccc(N(C)C(=O)CCN3CCC(OC(=O)Nc4ccccc4-c4ccccc4)CC3)cc2)cc1)NC[C@H](O)c1ccc(O)c2[nH]c(=O)ccc12 (stereo partly drawn) [Compound I-66, Biphenyl-2-ylcarbamic acid 1-[2-({4-[(4-{2-[(R)-2-hydroxy-2-(8-hydroxy-2-oxo-1,2-dihydroquinolin-5-yl)-ethylamino]propyl}benzylcarbamoyl)methyl]phenyl}-methylcarbamoyl)ethyl]piperidin-4-yl ester ditrifluoroacetic acid salt] | No
